Entries after “also recorded” stand apart in the source; their conditions may differ.
Key:
Bcl-xL = Bcl-xL expression by immunoblotting in SCCHN cells in vitro; assay type: cell-based, human; conditions: 1483 cells; 25 μM, 6 days; p<0.0001
Description: (§1) Immunoblotting. Whole cell extracts were mixed with 2× sodium dodecyl sulfate (SDS) sample buffer (125 mmol/L Tris-HCL, pH 6.8; 4% SDS; 20% glycerol; 10% 2 mercaptoethanol) at 1:1 ratio and were heated for 5 min at 100° C. Proteins (50 μg/lane) were separated by 12.5% SDS-PAGE and transferred onto a nitrocellulose membrane (MSI; Westboro, Mass). Prestained molecular weight markers (GIBCO BRL; Gaithersburg, MD) were included in each gel. Membranes were blocked for 30 min in Tris-buffered saline (TBS: 10 mmol/L Tris-HCL, pH 7.5 and 150 mmol/L NaCl) with 0.5% Tween-20 (TBST) and 5% BSA. […] Quantification of Cyclin D1 and Bcl-xL was performed by using a Molecular Dynamics Personal Densitometer SI and IMAGEQUANT software (Image Products International, Chantilly, Va.). Immunoblotting bands were quantified by densitometry and the Molecular Analyst software (AlphaDigidoc 1000, Alpho-Innotech) with normalization of each band to their corresponding loading control (Xi, S., et al. J Biol Chem, 278: 31574-31583, 2003). […]
(§2) As shown above, treatment with the STAT3 decoy abrogates STAT3 target gene expression in vivo. […] The data were analyzed using parametric analysis of variance of a two-way factorial design. […]

p53-responsive element = assay: p53-Luciferase reporter gene assay in UM-22B SCCHN cells; assay type: cell-based; conditions: UM-22B p53-Luc, 2 μg transfected, 24 hrs
Description: FIG. 8 depicts the inhibition of reporter gene expression from a p53-responsive element in SCCHN cells. An SCCHN cell line, UM-22B, was used to generate a stable cell line expressing a p53-Luciferase (p53-Luc) reporter gene (The p53-Luc plasmid carrying 14 repeats of p53 transcription recognition sequence: 5'-[…] ID NO: 30)), was obtained from Stratagene, Catalog number: 219085-51). The cells were transfected with 2 μg of the STAT3 decoy or the control mutant decoy. At 24 hrs after transfection, luciferase (Luc) activity was measured and normalized to the total amount of protein according to standard methods.

[1] = test system: SCCHN xenografts (1483 cells); assay: In vivo tumor xenograft study, tumor volumes; design: species or system athymic nude mice; conditions: 25 μg intratumoral daily, 1483 xenografts, nude mice; p=0.002
Description: Statistics. In vivo comparisons of STAT3, cyclin D1 and Bcl-xL expression levels were conducted with the Wilcoxon test for comparing two groups or the Kruskal-Wallis test for comparing three groups. All tests were exact and two-tailed. Studies of the joint effect of STAT3 decoy and cisplatin upon in vitro apoptosis were evaluated with a two way factorial design. Additive and synergistic effects of the STAT3 decoy and cisplatin were tested with a permutation test. In vivo tumor xenograft experiments were analyzed with mixed linear models that assumed animals were random effects having an unstructured within-animal covariance matrix. Data were log transformed and examined for the interaction between treatment group and day of observation beginning with day 10 after tumor inoculation, differences between treatment groups were estimated and tested with the pooled estimated standard error. Multiple comparisons were controlled by simulating observations from a multivariate t distribution with the same covariance matrix as the observed data and adjusting p values accordingly.
In vivo tumor xenograft studies. Female athymic nude mice nu/nu (4-6 weeks old; 20±2 g; Harlan-Sprague-Dawley) were implanted with 1×10^6 1483 cells into the right and left flank with a 26-gauge needle/1 ml tuberculin syringe, resulting in two tumors per mouse. […]

Cyclin D1 [2] = assay: Cyclin D1 expression by immunoblotting in harvested xenografts; assay type: in vivo, human; conditions: decoy alone, p=0.0022
Description: as §1, with “BSA. After blocking, membranes were incubated with a primary antibody; rabbit anti-human VEGF polyclonal antibody, rabbit anti-human Cyclin D1 polyclonal antibody, mouse anti-human Bcl-xL monoclonal antibody, or rabbit anti-human PCNA polyclonal antibody (Santa Cruz Biotechnology, Santa Cruz, Calif.), in TBST and 1% BSA.” for “BSA.”

[3] = test system: normal mucosal epithelial cells; conditions: cited from earlier work
Cyclin D1 [4] = assay: Cyclin D1 expression by immunoblotting in SCCHN cells in vitro; assay type: cell-based, human; conditions: 1483 cells; 25 μM, 6 days; p<0.0001
Description: as §1, §2

Substance: STAT3 decoy (sense CATTTCCCGTAAATC; antisense GATTTACGGGAAATG; phosphorothioate modified, further chemistry not given here; listed as Homo sapiens)
- Bcl-xL expression compared with mutant control decoy (Bcl-xL): decreased
- p53 reporter activity (p53-responsive element): specifically interfere
- tumor growth (tumor volumes) compared with mutant control decoy [1]: significantly decreased; also recorded: growth inhibited
- Cyclin D1 expression levels compared with mutant control decoy (Cyclin D1 [2]): significant effect
- toxicity to normal mucosal epithelial cells [3]: lack toxicity
- Cyclin D1 expression compared with mutant control decoy (Cyclin D1 [4]): decreased

From US20060293264A1, “STAT3 decoy oligonucleotides and uses therefor” (priority 2004, published 2006)
